Measured values published in PubChem BioAssay AID1963427 (Molecular Pharmacology Branch, DTP, NCI, 2024).
“And” between values parts separate entries of the source, which are not always exact repeats. Equal values may be shown once. Blank lines part the entries; values can stand above or below the compound they belong to.

Test system: 317291-083-R-J1-PDC complex spheroid growth
Experiment: Anticancer human tumor 317291-083-R-J1-PDC patient-derived soft tissue sarcoma cell line growth inhibition [Asc]
Conditions: for viability, T/C: stronger effect = lower value
Procedure, shortened: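 Tumor cells were grown as multicellular spheroids with stromal HUVEC and mesenchymal stem cells and treated singly or in combination. Concentrations fell in half-log steps from the clinical Cmax, or from 10 microM where none was known.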

[1] = curve of first compound, second compound 0.0316 µM
[2] = curve of first compound, second compound 0.1 µM
[3] = curve of first compound, second compound 0.316 µM
[4] = curve of first compound, second compound 1 µM
[5] = second compound 0.0316 µM, first compound 0.0316 µM
[6] = second compound 0.0316 µM, first compound 0.1 µM
[7] = second compound 0.0316 µM, first compound 0.316 µM
[8] = second compound 0.0316 µM, first compound 1 µM
[9] = second compound 0.0316 µM, first compound 3.16 µM
[10] = second compound 0.0316 µM, first compound 10 µM
[11] = second compound 0.1 µM, first compound 0.0316 µM
[12] = second compound 0.1 µM, first compound 0.1 µM
[13] = second compound 0.1 µM, first compound 0.316 µM
[14] = second compound 0.1 µM, first compound 1 µM
[15] = second compound 0.1 µM, first compound 3.16 µM
[16] = second compound 0.1 µM, first compound 10 µM
[17] = second compound 0.316 µM, first compound 0.0316 µM
[18] = second compound 0.316 µM, first compound 0.1 µM
[19] = second compound 0.316 µM, first compound 0.316 µM
[20] = second compound 0.316 µM, first compound 1 µM
[21] = second compound 0.316 µM, first compound 3.16 µM
[22] = second compound 0.316 µM, first compound 10 µM
[23] = second compound 1 µM, first compound 0.0316 µM
[24] = second compound 1 µM, first compound 0.1 µM
[25] = second compound 1 µM, first compound 0.316 µM
[26] = second compound 1 µM, first compound 1 µM
[27] = second compound 1 µM, first compound 3.16 µM
[28] = second compound 1 µM, first compound 10 µM
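Note: compound exposure lasted seven days after spheroids formed for three days.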
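Throughout, for viability, T/C: 100% = DMSO vehicle control wells.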

IC50 [1]: > 10 µM
IC50 [2]: > 10 µM
IC50 [3]: > 10 µM
IC50 [4]: > 10 µM
IC50 (curve of first compound, second compound 3.16 µM): 8.05 µM
IC50 (curve of first compound, second compound 10 µM): 9.46 µM
Structure (SMILES): C=CC(=O)N1CCN(c2nc(=O)n(-c3c(C)ccnc3C(C)C)c3nc(-c4c(O)cccc4F)c(F)cc23)C(C)C1 (stereo not given) + Cc1c(S(C)(=O)=O)c(-c2cc(F)cc(N3CCN(c4ccc(NS(=O)(=O)c5ccc(NC(CCN6CCC(C(=O)OCCCP(=O)(O)O)CC6)CSc6ccccc6)c(S(=O)(=O)C(F)(F)F)c5)cc4)CC3)c2)c(-c2ccc(Cl)cc2)n1C(C)C
viability, T/C [5]: 108%
viability, T/C [6]: 86.8%
viability, T/C [7]: 108%
viability, T/C [8]: 98.3%
viability, T/C [9]: 98.3%
viability, T/C [10]: 66.1%
viability, T/C [11]: 84.4%
viability, T/C [12]: 97.7%
viability, T/C [13]: 86.1%
viability, T/C [14]: 86.5%
viability, T/C [15]: 100%
viability, T/C [16]: 60.1%
viability, T/C [17]: 91%
viability, T/C [18]: 102%
viability, T/C [19]: 85.3%
viability, T/C [20]: 90.6%
viability, T/C [21]: 83.9%
viability, T/C [22]: 59.7%
viability, T/C [23]: 81.5%
viability, T/C [24]: 84.3%
viability, T/C [25]: 96.2%
viability, T/C [26]: 80.2%
viability, T/C [27]: 81.7%
viability, T/C [28]: 51.7%
viability, T/C (second compound 3.16 µM, first compound 0.0316 µM): 82.4%
viability, T/C (second compound 3.16 µM, first compound 0.1 µM): 70.7%
viability, T/C (second compound 3.16 µM, first compound 0.316 µM): 87.8%
viability, T/C (second compound 3.16 µM, first compound 1 µM): 74.7%
viability, T/C (second compound 3.16 µM, first compound 3.16 µM): 79.5%
viability, T/C (second compound 3.16 µM, first compound 10 µM): 43.2%
viability, T/C (second compound 10 µM, first compound 0.0316 µM): 87.1%
viability, T/C (second compound 10 µM, first compound 0.1 µM): 90.6%
viability, T/C (second compound 10 µM, first compound 0.316 µM): 93.2%
viability, T/C (second compound 10 µM, first compound 1 µM): 88.6%
viability, T/C (second compound 10 µM, first compound 3.16 µM): 96.6%
viability, T/C (second compound 10 µM, first compound 10 µM): 47.9%

IC50 (curve of compound): > 10 µM
Structure (SMILES): C#Cc1c(F)ccc2cc(O)cc(-c3ncc4c(N5CC6CCC(C5)N6)nc(OCC56CCCN5CC(F)C6)nc4c3F)c12 (stereo not given)
viability, T/C (compound 0.0316 µM): 86.9% and 91% and 105%
viability, T/C (compound 0.1 µM): 84.9% and 99.4% and 85.2%
viability, T/C (compound 0.316 µM): 87.6% and 108% and 105%
viability, T/C (compound 1 µM): 97.5% and 103% and 102%
viability, T/C (compound 3.16 µM): 95.8% and 90.8% and 94.6%
viability, T/C (compound 10 µM): 56.1% and 72.7% and 85.2%

IC50 (curve of first compound, second compound 0.00316 µM): 6.74 µM
IC50 (curve of first compound, second compound 0.01 µM): 8.01 µM
IC50 [1]: 4.12 µM
IC50 [2]: 3.61 µM
IC50 [3]: < 0.0316 µM
IC50 [4]: < 0.0316 µM
Structure (SMILES): C#Cc1c(F)ccc2cc(O)cc(-c3ncc4c(N5CC6CCC(C5)N6)nc(OCC56CCCN5CC(F)C6)nc4c3F)c12 (stereo not given) + CNC(C)C(=O)NC1CN(S(=O)(=O)c2cccc(S(=O)(=O)N3CCC4CCC(C(=O)NC(c5ccccc5)c5ccccc5)N4C(=O)C(NC(=O)C(C)NC)C3)c2)CCC2CCC(C(=O)NC(c3ccccc3)c3ccccc3)N2C1=O
viability, T/C (second compound 0.00316 µM, first compound 0.0316 µM): 76.3%
viability, T/C (second compound 0.00316 µM, first compound 0.1 µM): 75.7%
viability, T/C (second compound 0.00316 µM, first compound 0.316 µM): 72.3%
viability, T/C (second compound 0.00316 µM, first compound 1 µM): 84.3%
viability, T/C (second compound 0.00316 µM, first compound 3.16 µM): 87%
viability, T/C (second compound 0.00316 µM, first compound 10 µM): 34.8%
viability, T/C (second compound 0.01 µM, first compound 0.0316 µM): 84.2%
viability, T/C (second compound 0.01 µM, first compound 0.1 µM): 71.6%
viability, T/C (second compound 0.01 µM, first compound 0.316 µM): 57.8%
viability, T/C (second compound 0.01 µM, first compound 1 µM): 81.4%
viability, T/C (second compound 0.01 µM, first compound 3.16 µM): 76%
viability, T/C (second compound 0.01 µM, first compound 10 µM): 44.3%
viability, T/C [5]: 67.5%
viability, T/C [6]: 66.6%
viability, T/C [7]: 59.3%
viability, T/C [8]: 63.9%
viability, T/C [9]: 58.1%
viability, T/C [10]: 23.5%
viability, T/C [11]: 54.9%
viability, T/C [12]: 55%
viability, T/C [13]: 53.3%
viability, T/C [14]: 50.8%
viability, T/C [15]: 59%
viability, T/C [16]: 15.1%
viability, T/C [17]: 42.9%
viability, T/C [18]: 46.2%
viability, T/C [19]: 44.3%
viability, T/C [20]: 31.9%
viability, T/C [21]: 43.6%
viability, T/C [22]: 10.6%
viability, T/C [23]: 31.1%
viability, T/C [24]: 29%
viability, T/C [25]: 29.4%
viability, T/C [26]: 24.4%
viability, T/C [27]: 26.2%
viability, T/C [28]: 8.59%

Continued, compound first:

Structure (SMILES): O=C(c1ccc(F)c(F)c1Nc1ccc(I)cc1F)N1CC(O)([C@@H]2CCCCN2)C1
viability, T/C (compound 0.00316 µM): 97% and 91.5% and 98.6%
viability, T/C (compound 0.01 µM): 102% and 91.8% and 91%
viability, T/C (compound 0.0316 µM): 109% and 88.6% and 93.6%
viability, T/C (compound 0.1 µM): 94.1% and 119% and 117%
viability, T/C (compound 0.316 µM): 65.2% and 71.6% and 81.1%
viability, T/C (compound 1 µM): 19.6% and 18.1% and 25%
IC50 (curve of compound): 0.462 µM and 0.504 µM and 0.599 µM

Structure (SMILES): NC1CCC(NC2CC2c2ccccc2)CC1 (stereo not given) + CCN1C(C(=O)NC23CCC(C(=O)O)(CC2)CC3)C(c2cccc(Cl)c2F)C2(C(=O)Nc3cc(Cl)ccc32)C12CCCCC2
IC50 (curve of first compound, second compound 0.00949 µM): > 0.1 µM
IC50 (curve of first compound, second compound 0.03 µM): > 0.1 µM
IC50 (curve of first compound, second compound 0.0949 µM): > 0.1 µM
IC50 (curve of first compound, second compound 0.3 µM): > 0.1 µM
IC50 (curve of first compound, second compound 0.949 µM): > 0.1 µM
IC50 (curve of first compound, second compound 3 µM): > 0.1 µM
viability, T/C (second compound 0.00949 µM, first compound 0.000316 µM): 92.4%
viability, T/C (second compound 0.00949 µM, first compound 0.001 µM): 103%
viability, T/C (second compound 0.00949 µM, first compound 0.00316 µM): 96.6%
viability, T/C (second compound 0.00949 µM, first compound 0.01 µM): 97%
viability, T/C (second compound 0.00949 µM, first compound 0.0316 µM): 95.5%
viability, T/C (second compound 0.00949 µM, first compound 0.1 µM): 94.2%
viability, T/C (second compound 0.03 µM, first compound 0.000316 µM): 109%
viability, T/C (second compound 0.03 µM, first compound 0.001 µM): 100%
viability, T/C (second compound 0.03 µM, first compound 0.00316 µM): 106%
viability, T/C (second compound 0.03 µM, first compound 0.01 µM): 114%
viability, T/C (second compound 0.03 µM, first compound 0.0316 µM): 107%
viability, T/C (second compound 0.03 µM, first compound 0.1 µM): 94.2%
viability, T/C (second compound 0.0949 µM, first compound 0.000316 µM): 103%
viability, T/C (second compound 0.0949 µM, first compound 0.001 µM): 81.3%
viability, T/C (second compound 0.0949 µM, first compound 0.00316 µM): 87.6%
viability, T/C (second compound 0.0949 µM, first compound 0.01 µM): 95.7%
viability, T/C (second compound 0.0949 µM, first compound 0.0316 µM): 106%
viability, T/C (second compound 0.0949 µM, first compound 0.1 µM): 108%
viability, T/C (second compound 0.3 µM, first compound 0.000316 µM): 116%
viability, T/C (second compound 0.3 µM, first compound 0.001 µM): 108%
viability, T/C (second compound 0.3 µM, first compound 0.00316 µM): 98.9%
viability, T/C (second compound 0.3 µM, first compound 0.01 µM): 80.3%
viability, T/C (second compound 0.3 µM, first compound 0.0316 µM): 102%
viability, T/C (second compound 0.3 µM, first compound 0.1 µM): 111%
viability, T/C (second compound 0.949 µM, first compound 0.000316 µM): 98.9%
viability, T/C (second compound 0.949 µM, first compound 0.001 µM): 120%
viability, T/C (second compound 0.949 µM, first compound 0.00316 µM): 76.2%
viability, T/C (second compound 0.949 µM, first compound 0.01 µM): 93.8%
viability, T/C (second compound 0.949 µM, first compound 0.0316 µM): 97.6%
viability, T/C (second compound 0.949 µM, first compound 0.1 µM): 106%
viability, T/C (second compound 3 µM, first compound 0.000316 µM): 99.7%
viability, T/C (second compound 3 µM, first compound 0.001 µM): 107%
viability, T/C (second compound 3 µM, first compound 0.00316 µM): 81.5%
viability, T/C (second compound 3 µM, first compound 0.01 µM): 74.2%
viability, T/C (second compound 3 µM, first compound 0.0316 µM): 83.6%
viability, T/C (second compound 3 µM, first compound 0.1 µM): 74.3%
